From ChEMBL document CHEMBL1201862, “PubChem BioAssay data set” (2004)
Activity calls are given as the source filed them.

Columns and labels:
[1] = molecular target: T1, RNA-binding protein pos-1 (Caenorhabditis elegans, UniProt G5EF15); assay: disruptors of C. elegans POS-1 RNA interaction – biochemical, fluorescence polarization, dose response (AID 1964);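 note: purified POS-1 fused to maltose binding protein made in E. coli; potency of compounds blocking POS-1 binding to fluorescent RNA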
T1 sequence (G5EF15 whole entry): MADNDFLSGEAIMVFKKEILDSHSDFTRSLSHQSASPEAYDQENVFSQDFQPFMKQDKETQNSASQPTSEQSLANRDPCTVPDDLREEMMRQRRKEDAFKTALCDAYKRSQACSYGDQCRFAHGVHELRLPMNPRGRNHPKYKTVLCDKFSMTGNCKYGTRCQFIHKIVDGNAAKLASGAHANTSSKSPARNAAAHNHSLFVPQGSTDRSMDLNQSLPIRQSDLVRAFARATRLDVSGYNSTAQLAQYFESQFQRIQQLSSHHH

SUMO-activating enzyme [2] = molecular target: T2, SUMO-activating enzyme (Homo sapiens, UniProt Q9UBT2); assay: blockers of UBC9-mediated SUMO conjugation – biochemical, AlphaScreen, SUMOylation inhibitor project, confirmation (AID 2018); format: functional
T2 sequence (Q9UBE0 whole entry): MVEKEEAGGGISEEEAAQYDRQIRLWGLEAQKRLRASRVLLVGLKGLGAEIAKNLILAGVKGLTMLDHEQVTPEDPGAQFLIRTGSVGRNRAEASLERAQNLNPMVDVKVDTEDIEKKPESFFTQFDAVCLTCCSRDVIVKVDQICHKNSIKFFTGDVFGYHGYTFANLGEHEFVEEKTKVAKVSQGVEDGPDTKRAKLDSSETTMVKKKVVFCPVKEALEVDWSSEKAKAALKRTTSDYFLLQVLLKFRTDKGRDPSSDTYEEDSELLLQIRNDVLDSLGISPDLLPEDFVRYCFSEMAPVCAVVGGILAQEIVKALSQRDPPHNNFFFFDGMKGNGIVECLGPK
T2 sequence (Q9UBT2 whole entry): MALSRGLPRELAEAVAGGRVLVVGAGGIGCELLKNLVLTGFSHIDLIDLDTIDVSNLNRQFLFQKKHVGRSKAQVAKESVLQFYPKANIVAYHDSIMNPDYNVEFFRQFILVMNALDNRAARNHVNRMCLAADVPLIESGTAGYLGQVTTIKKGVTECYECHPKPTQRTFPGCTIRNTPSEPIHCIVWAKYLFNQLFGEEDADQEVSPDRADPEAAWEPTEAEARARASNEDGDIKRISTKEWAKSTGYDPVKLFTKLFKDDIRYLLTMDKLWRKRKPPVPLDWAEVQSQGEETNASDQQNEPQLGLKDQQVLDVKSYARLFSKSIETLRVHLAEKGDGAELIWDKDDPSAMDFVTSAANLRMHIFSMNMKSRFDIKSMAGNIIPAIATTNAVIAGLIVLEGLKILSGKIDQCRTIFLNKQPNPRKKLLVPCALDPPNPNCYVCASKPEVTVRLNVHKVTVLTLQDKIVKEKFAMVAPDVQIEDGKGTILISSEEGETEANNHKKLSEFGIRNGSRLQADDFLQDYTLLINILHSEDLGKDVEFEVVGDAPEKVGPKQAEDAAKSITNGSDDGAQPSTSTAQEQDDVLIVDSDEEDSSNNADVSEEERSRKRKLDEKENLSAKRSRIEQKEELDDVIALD

[3] = molecular target: T3, Zinc finger protein mex-5 (Caenorhabditis elegans, UniProt Q9XUB2); assay: potency of MEX-5 RNA-binding blockers – biochemical, C. elegans, fluorescence polarization, dose response (AID 1960)
T3 sequence (Q9XUB2 whole entry): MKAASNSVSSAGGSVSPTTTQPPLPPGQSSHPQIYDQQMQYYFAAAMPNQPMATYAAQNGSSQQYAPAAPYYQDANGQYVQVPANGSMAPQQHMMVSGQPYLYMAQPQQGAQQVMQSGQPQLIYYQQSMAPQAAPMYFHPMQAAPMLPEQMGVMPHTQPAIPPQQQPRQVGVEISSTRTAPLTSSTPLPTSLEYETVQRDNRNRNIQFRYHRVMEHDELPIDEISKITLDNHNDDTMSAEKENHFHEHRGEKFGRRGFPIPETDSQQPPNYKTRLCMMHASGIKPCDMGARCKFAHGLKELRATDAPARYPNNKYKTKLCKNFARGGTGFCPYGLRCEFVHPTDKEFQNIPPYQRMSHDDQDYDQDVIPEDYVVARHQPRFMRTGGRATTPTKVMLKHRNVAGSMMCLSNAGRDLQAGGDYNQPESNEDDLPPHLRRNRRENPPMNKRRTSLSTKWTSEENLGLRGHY

SUMO-activating enzyme [4] = molecular target: T2, SUMO-activating enzyme; assay: blockers of SAE1/SAE2–UBC9 SUMO transfer – biochemical, HTRF, uHTS, primary screen (AID 2006); format: protein-complex assay
[5] = mitochondrial function rescue without frataxin homolog – Friedreich's ataxia, plus single-dose screen, dose response (AID 1465); format: functional;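 note: yeast depleted of Yfh1p frataxin homolog grown on glycerol needing respiration; WST-1 tetrazolium dye reduction as measure of cellular dehydrogenase metabolic activity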
Cytochrome P450 2C19 = Cytochrome P450 2C19 (Homo sapiens, UniProt P33261); assay: qHTS Assay for Inhibitors and Substrates of Cytochrome P450 2C19. [Related pubchem assays: 410 ]; format: ADME; conditions: read-out: Potency
Chain of Cytochrome P450 2C19 (P33261 whole entry): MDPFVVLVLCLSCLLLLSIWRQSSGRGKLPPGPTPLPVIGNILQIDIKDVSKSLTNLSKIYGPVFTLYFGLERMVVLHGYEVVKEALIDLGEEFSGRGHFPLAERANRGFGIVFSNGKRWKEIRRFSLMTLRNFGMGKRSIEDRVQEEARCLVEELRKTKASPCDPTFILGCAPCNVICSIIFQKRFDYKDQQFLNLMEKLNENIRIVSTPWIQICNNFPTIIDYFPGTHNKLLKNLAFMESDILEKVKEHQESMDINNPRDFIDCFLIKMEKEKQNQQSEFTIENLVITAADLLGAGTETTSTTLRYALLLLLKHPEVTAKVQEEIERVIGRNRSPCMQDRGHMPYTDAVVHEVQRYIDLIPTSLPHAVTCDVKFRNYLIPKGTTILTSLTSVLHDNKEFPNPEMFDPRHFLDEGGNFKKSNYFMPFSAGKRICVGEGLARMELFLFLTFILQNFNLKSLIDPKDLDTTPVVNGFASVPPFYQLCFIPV

[6] = tested on: Streptococcus sp. 'group A'; assay: Streptococcus pyogenes SK(-)GAS viability under kanamycin – luminescence, BacTiterGlo, confirmation, counter-screen for streptokinase expression inhibitor project, dose response (AID 1900); format: functional, organism-based
Streptokinase A = molecular target: T4, Streptokinase A (Streptococcus pyogenes serotype M1, UniProt P10520); assay: viability-normalized secreted streptokinase activity reduction – plasminogen activation absorbance, OD405, dose response (AID 1914); format: functional, Streptococcus pyogenes M1 GAS;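 note: secreted streptokinase activity via plasminogen activation per viability signal from cell pellet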
T4 sequence (P10520 whole entry): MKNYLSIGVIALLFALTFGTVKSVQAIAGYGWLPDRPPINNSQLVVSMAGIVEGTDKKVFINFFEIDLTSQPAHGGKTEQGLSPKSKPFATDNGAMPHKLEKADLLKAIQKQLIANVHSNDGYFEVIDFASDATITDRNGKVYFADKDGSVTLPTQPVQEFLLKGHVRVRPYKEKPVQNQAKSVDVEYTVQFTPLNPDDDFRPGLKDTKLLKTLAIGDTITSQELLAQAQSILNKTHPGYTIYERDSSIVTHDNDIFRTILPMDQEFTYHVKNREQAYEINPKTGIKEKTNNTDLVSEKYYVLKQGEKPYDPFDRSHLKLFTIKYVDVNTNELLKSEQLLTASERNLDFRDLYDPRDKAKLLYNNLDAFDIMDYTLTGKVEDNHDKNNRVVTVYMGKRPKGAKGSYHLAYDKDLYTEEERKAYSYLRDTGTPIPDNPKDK

[7] = molecular target: Peroxisome proliferator-activated receptor gamma/Nuclear receptor corepressor 2 (Homo sapiens, UniProt P37231+Q9Y618); assay: Counterscreen for NR2E3 inverse agonists: TR-FRET-based biochemical high throughput dose response assay to identify inverse agonists of the interaction between peroxisome proliferator-activated receptor gamma (PPARg) and nuclear receptor co-repressor 2 (NCOR2).; format: functional
[8] = molecular target: Photoreceptor-specific nuclear receptor (Homo sapiens, UniProt Q9Y5X4); assay: ligands suppressing NR2E3 nuclear receptor activity – biochemical, TR-FRET, dose response (AID 463256); format: functional
Streptococcus = assay: GAS UMAA2166 growth inhibition – luminescence, BacTiterGlo, counter-screen for streptokinase expression inhibitor project, dose response (AID 1915); format: functional, organism-based;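 note: potency for reduction of bacterial viability or growth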
NADPH oxidase 1 = NADPH oxidase 1 (Homo sapiens, UniProt Q9Y5S8); format: functional, cell-based;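 note: Cell-based assay with luminescence read-out, IC50 derived from inhibitor dose-response curves; intracellular ROS from endogenous NOX1 in intact HT29 colon cancer cells; potency of inhibitors that lower the ROS luminescence signal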
Chain of NADPH oxidase 1 (Q9Y5S8 whole entry): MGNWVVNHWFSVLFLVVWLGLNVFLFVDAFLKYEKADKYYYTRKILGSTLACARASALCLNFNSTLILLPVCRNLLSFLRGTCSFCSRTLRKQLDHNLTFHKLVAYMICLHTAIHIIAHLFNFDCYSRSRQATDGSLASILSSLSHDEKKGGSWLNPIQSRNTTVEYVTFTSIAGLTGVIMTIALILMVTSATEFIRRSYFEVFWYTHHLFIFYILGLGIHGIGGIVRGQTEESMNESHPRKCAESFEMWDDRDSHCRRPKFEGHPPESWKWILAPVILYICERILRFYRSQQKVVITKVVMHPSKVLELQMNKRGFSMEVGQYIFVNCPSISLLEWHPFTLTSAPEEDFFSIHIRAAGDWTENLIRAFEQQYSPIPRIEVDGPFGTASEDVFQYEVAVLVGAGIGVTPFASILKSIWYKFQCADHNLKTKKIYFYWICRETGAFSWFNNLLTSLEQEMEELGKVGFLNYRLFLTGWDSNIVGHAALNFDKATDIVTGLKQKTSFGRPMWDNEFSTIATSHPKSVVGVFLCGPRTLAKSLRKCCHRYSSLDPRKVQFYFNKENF

[9] = molecular target: 5-hydroxytryptamine receptor 1A (Homo sapiens, UniProt P08908); format: functional
[10] = molecular target: Sphingosine 1-phosphate receptor 2 (Homo sapiens, UniProt O95136); assay: Dose Response Cell Based Assay for Agonists of the S1P2 Receptor of Purchased Analogues. [Related pubchem assays: 729, 843, 854, 736 ]; format: functional
Chain of Sphingosine 1-phosphate receptor 2 (O95136 whole entry): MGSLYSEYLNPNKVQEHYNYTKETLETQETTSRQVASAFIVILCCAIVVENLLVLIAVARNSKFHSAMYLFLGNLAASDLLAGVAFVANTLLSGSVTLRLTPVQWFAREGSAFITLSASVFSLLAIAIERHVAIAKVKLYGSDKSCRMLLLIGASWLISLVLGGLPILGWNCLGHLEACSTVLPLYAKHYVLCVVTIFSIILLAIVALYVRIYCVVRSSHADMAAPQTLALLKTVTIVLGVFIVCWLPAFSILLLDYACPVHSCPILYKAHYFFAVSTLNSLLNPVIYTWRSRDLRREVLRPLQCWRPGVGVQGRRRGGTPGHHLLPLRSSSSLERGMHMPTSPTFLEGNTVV

Bcl-2-like protein 10 = Bcl-2-like protein 10 (Homo sapiens, UniProt Q9HD36); assay: Concentration-response of Bcl-B inhibitors by biochemical FP with TR3 (AID 1243); format: functional
Vero [11] = assay: mammalian cell viability reduction – secondary assay, cytotoxicity control for West Nile virus antiviral project, dose response (AID 1650); format: functional; conditions: Chlorocebus sabaeus
Vero [12] = assay: inhibition of WNV-induced cytopathic effect – cell-based, CPE readout (AID 1621); format: functional; conditions: Chlorocebus sabaeus
Trypsin = Trypsin (Sus scrofa, UniProt P00761); assay: trypsin protease activity blockade – biochemical, quenched peptide fluorescence, cherry-pick, selectivity assay for Rce1 protease inhibitor project, dose response (AID 488789)
CAAX prenyl protease 2 = molecular target: T5, CAAX prenyl protease 2 (Saccharomyces cerevisiae S288c, UniProt Q03530); format: biochemical
T5 sequence (Q03530 whole entry): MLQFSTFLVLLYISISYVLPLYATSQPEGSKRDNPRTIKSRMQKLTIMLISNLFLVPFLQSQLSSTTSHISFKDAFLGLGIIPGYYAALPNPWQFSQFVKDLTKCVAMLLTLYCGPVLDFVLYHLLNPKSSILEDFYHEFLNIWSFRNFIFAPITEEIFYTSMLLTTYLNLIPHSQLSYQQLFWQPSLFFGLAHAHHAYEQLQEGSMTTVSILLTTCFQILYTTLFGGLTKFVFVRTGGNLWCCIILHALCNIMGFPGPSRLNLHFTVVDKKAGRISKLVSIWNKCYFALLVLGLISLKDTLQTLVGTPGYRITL

[13] = molecular target: T6, DNA repair and recombination protein RAD54-like (Homo sapiens, UniProt Q92698); assay: RAD54 Holliday junction migration blockers – biochemical, fluorescence, cherry-picked samples, dose series, confirmation (AID 651657); format: functional
T6 sequence (Q92698 whole entry): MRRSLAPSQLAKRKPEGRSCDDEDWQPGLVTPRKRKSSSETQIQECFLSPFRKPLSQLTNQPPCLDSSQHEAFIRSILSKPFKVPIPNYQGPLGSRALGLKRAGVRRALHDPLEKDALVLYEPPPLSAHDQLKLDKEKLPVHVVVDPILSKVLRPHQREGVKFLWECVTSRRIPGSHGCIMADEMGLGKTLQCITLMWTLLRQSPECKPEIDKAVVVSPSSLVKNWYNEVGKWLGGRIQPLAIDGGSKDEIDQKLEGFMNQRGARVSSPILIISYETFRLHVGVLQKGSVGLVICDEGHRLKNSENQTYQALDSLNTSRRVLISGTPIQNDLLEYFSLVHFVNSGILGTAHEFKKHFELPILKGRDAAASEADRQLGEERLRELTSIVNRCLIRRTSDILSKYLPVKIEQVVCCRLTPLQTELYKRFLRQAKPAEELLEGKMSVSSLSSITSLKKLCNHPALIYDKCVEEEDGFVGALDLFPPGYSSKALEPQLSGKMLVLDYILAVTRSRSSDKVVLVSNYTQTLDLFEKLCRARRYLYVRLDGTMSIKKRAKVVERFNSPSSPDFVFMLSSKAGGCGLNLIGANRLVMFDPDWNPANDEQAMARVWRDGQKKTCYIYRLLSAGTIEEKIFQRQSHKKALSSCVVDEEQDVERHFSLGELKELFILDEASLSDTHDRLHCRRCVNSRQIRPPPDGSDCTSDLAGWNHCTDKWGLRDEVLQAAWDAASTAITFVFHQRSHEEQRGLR

[14] = molecular target: T7, DNA repair protein RAD52 homolog (Homo sapiens, UniProt P43351); format: functional, biochemical
T7 sequence (P43351 whole entry): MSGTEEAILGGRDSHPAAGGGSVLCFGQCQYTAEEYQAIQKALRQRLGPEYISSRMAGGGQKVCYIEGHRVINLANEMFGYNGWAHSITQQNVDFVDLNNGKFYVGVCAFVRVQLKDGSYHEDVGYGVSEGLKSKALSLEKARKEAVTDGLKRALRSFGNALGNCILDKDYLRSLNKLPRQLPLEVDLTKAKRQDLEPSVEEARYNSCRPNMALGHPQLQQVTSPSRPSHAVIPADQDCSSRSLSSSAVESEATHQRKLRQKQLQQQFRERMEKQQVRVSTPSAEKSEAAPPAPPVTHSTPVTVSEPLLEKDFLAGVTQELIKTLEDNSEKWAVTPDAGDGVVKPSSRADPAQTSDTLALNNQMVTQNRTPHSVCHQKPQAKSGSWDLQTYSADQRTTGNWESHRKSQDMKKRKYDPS

[15] = molecular target: Peroxisome proliferator-activated receptor gamma/Nuclear receptor coactivator 1 (Homo sapiens, UniProt P37231); assay: (§1) TR-FRET dose response biochemical High Throughput Screening assay for agonists of the steroid receptor coactivator 1 (SRC-1) recruitment by the peroxisome proliferator-activated receptor gamma (PPAR gamma): non-selective agonists. [Related pubchem assays (depositor defined):AID1300, AID1808, AID504735, AID631]; format: protein assay
[16] = molecular target: Peroxisome proliferator-activated receptor gamma/Nuclear receptor coactivator 3 (Homo sapiens, UniProt P37231); assay: as §1, with “3 (SRC-3)” for “1 (SRC-1)”, “assays: 1301 (Confirmation screen.), 1048 (Primary screen.)]” for “assays (depositor defined):AID1300, AID1808, AID504735, AID631]”; format: functional
[17] = molecular target: Mothers against decapentaplegic homolog 3 (Homo sapiens, UniProt P84022); assay: inhibitors of SMAD-driven TGF-beta signaling – dose response (AID 715); format: functional
[18] = molecular target: Peroxisome proliferator-activated receptor gamma/Nuclear receptor coactivator 2 (Homo sapiens, UniProt P37231); assay: TR-FRET dose response biochemical High Throughput Screening assay for agonists of the steroid receptor coactivator 2 (SRC-2) recruitment by the peroxisome proliferator-activated receptor gamma (PPAR gamma): non-selective agonists. [Related pubchem assays: 1297, 1032 ]; format: functional
Chain of Peroxisome proliferator-activated receptor gamma/Nuclear receptor coactivator 2 (P37231 whole entry): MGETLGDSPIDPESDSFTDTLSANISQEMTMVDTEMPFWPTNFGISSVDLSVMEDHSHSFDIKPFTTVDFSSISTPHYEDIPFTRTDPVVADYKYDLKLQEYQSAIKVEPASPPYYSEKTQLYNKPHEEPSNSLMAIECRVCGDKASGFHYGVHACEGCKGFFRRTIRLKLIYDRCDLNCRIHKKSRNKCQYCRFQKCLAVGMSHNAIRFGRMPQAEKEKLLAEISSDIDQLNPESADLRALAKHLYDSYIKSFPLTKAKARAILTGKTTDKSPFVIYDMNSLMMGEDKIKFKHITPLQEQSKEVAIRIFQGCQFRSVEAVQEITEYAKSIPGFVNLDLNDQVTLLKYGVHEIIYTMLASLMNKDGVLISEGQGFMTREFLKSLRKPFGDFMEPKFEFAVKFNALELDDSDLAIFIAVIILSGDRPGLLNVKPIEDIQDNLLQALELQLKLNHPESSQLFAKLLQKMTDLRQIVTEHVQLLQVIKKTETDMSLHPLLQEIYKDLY
Chain of Peroxisome proliferator-activated receptor gamma/Nuclear receptor coactivator 2 (Q15596 whole entry, further chain): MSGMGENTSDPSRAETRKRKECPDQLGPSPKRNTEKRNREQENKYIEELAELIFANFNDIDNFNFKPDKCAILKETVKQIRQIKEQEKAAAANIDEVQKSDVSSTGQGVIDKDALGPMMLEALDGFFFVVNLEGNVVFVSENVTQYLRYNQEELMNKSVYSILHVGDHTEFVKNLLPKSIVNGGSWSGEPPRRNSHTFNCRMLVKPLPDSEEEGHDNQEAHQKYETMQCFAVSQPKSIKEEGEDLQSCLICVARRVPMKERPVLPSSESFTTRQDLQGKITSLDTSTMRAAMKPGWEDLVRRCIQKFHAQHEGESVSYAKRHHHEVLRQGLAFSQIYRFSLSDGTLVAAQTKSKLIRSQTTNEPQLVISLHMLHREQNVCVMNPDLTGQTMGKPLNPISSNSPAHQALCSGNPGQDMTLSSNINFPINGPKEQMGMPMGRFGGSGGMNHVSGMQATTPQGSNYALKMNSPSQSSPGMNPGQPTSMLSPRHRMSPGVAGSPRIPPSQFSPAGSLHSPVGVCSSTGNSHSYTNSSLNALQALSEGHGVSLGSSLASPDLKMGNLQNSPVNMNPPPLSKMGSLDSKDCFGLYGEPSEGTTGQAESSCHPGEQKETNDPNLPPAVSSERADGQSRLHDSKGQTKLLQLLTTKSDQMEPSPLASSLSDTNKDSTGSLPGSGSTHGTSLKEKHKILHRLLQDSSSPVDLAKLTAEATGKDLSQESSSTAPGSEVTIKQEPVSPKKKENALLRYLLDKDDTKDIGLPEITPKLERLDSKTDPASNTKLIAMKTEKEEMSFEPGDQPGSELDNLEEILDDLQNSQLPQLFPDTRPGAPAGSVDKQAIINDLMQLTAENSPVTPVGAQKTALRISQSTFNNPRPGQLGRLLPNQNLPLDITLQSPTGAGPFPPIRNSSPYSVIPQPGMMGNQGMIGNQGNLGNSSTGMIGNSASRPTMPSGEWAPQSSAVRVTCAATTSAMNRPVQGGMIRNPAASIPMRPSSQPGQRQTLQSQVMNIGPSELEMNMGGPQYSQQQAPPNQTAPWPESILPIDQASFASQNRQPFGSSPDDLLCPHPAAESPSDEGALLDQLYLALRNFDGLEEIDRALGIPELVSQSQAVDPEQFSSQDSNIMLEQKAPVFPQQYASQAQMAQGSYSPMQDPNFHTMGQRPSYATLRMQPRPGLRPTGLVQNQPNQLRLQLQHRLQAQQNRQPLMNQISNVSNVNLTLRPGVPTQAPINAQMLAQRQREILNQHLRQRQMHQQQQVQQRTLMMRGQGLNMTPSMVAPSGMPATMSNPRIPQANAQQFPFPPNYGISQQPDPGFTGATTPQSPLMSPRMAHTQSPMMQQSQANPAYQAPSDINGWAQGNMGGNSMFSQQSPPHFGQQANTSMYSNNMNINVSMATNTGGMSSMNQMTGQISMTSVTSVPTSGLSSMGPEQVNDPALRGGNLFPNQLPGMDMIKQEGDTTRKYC

Estrogen receptor beta [19] = molecular target: T8, Estrogen receptor beta (Homo sapiens, UniProt Q92731);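 note: recombinant ER-beta bound to coactivator SRC1 peptide in presence of estradiol agonist; inhibitors block coactivator peptide binding and lower the FRET signal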
T8 sequence (Q92731 whole entry): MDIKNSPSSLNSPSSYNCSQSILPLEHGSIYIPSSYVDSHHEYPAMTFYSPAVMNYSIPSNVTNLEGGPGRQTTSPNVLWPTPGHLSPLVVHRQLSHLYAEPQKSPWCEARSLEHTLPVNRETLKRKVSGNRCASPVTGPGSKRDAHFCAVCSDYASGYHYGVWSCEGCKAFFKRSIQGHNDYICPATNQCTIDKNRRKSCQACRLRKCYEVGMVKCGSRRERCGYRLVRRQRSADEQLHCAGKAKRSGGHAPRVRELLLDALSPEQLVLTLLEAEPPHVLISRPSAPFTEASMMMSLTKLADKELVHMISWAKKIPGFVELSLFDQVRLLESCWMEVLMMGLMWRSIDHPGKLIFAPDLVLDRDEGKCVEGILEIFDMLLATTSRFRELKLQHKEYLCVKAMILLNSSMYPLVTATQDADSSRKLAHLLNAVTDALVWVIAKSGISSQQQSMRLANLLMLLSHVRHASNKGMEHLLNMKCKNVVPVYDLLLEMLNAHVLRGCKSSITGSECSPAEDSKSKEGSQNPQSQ

Estrogen receptor beta [20] = molecular target: T8, Estrogen receptor beta; assay: blockers of SRC-3 recruitment to ERβ – biochemical, ELISA, streptavidin-HRP readout, orthogonal assay, confirmation (AID 1060)
[21] = molecular target: Aryl hydrocarbon receptor (Homo sapiens, UniProt P35869); assay: Luminescence-based cell-based high throughput dose response assay for activators of the Aryl Hydrocarbon Receptor (AHR). [Related pubchem assays: 2796 (Primary screen (AHR activators in singlicate)), 2845 (Confirmation screen (AHR activators in triplicate)), 434939 (Counterscreen (PXR activators in triplicate)), 2804 (Summary (AHR activators))]; format: ADME

In the case of `COc1cc([N+](=O)[O-])cc(/C=N/NC(=O)CC#N)c1O`, the EC50 [1] is reported as > 300 µM (inconclusive), the IC50 (SUMO-activating enzyme [2]) is reported as 1.15 µM (active) and the EC50 [3] is reported as > 300 µM (inconclusive). The IC50 (SUMO-activating enzyme [4]) was 8.76 µM (active) and the EC50 [5] was > 100 µM (active).
In the case of `CC(C)C[C@H](NC(=O)[C@@H](NC(=O)N[C@@H](Cc1ccccc1)C(=O)O)[C@H]1CCN=C(N)N1)C(=O)N[C@H](C=O)Cc1ccccc1`, the AC50 (Cytochrome P450 2C19) is reported as 10 µM (inconclusive).
In the case of `O=C(COc1ccc(Cl)cc1Cl)Nc1ccc(-c2ccc(N3CCOCC3)nn2)cc1`, the EC50 [6] is reported as > 150 µM (not active), the EC50 (Streptokinase A) is reported as > 150 µM (not active) and the IC50 [7] is reported as 1.51 µM (active). For the same molecule, the IC50 [8] was 1.43 µM (active) and the EC50 (Streptococcus) was > 150 µM (not active).
With `C=C(NNc1c(Cl)c(Cl)nc(C(=O)O)c1Cl)c1ccc2c(c1)OCCO2` the IC50 (NADPH oxidase 1) was > 17 µM (not active).
For `Cc1c(CN2CCN(c3cccc(C(F)(F)F)c3)CC2)c(=O)n(-c2ccccc2)n1C`, the EC50 [9] was > 50 µM (not active).
With `Cc1cc(C(=O)CN2C(=O)C(=O)N(C3CCCC3)C2=O)c(C)n1Cc1ccccc1` the EC50 [10] was > 30 µM (not active).
In the case of `Nc1ccc(Oc2ccc(N)c(N)c2)cc1N`, the EC50 (Bcl-2-like protein 10) is reported as 5.37 µM (active).
With `CCN(CC)CCCNC(=O)c1cc2c(-c3cccc(OC)c3)nn(C)c2s1` the CC50 (Vero [11]) was > 100 µM (active), the IC50 (Vero [12]) was 19.9 µM (active) and the AC50 (Trypsin) was 9.95 µM (active). For the same molecule, the AC50 (CAAX prenyl protease 2) was 77.8 µM (active), the AC50 [13] was 34.1 µM (active) and the AC50 [14] was 6.07 µM (active).
For `CCN1CCCC1CNC(=O)CSc1cc(=O)n(C)c2cc(Cl)ccc12` (stereo not drawn), the EC50 [15] was > 79.4 µM (inactive), the EC50 [16] was > 79.4 µM (not active) and the IC50 [17] was 8.7 µM (active). The EC50 [18] was > 79.4 µM (not active).
For `O=C(c1cc2ncc(Br)cn2n1)N1CCOCC1`, the IC50 (Estrogen receptor beta [19]) was 9.16 µM (active) and the IC50 (Estrogen receptor beta [20]) was 23 µM (not active).
In the case of `Cc1nc(C)c(C(=O)N/N=C/c2c[nH]c3ccccc23)s1`, the EC50 [21] is reported as > 91.7 µM (not active).
